These are literature values, as cited in PMC5974752, “Bax/Tubulin/Epithelial-Mesenchymal Pathways Determine the Efficacy of Silybin Analog HM015k in Colorectal Cancer Cell Growth and Metastasis” (Frontiers in Pharmacology, 2018).

In series [1] the test system is CRC lines HCT116 and HT29. More on the design: method as in Agarwal et al., 2003. The note with it: ref Agarwal et al., 2003, cited from earlier work.
The test system of series [2] is PC3 and PC3MM2 cells. More on the design: method as in Deep et al., 2011. The note with it: 30 and 90 μM; ref Deep et al., 2011; cited from earlier work.
Series [3] has as its system ARCaP(M) cells. Details: method as in Wu et al., 2009. The note with it: 100 and 200 μM; ref Wu et al., 2009; cited from earlier work.
The test system of series [4] is transgenic mice with prostate adenocarcinomas. Details: method as in Singh et al., 2008. The note with it: 0.5 and 1% (w/w); ref Singh et al., 2008; cited from earlier work.
For series [5], the system named is PC3 and PC3MM2 cells. More on the design: method as in Deep et al., 2011. As to conditions: 90 μM; ref Deep et al., 2011; cited from earlier work.
Series [6] concerns EMT—driven resistance. More on the design: method as in Cufí et al., 2013. As to conditions: 100 mg/kg; ref Cufí et al., 2013; cited from earlier work.
In series [7] the test system is Wnt/β-catenin signaling in PC-3, DU-145, MDAMB-231 and T-47D cells. Details: method as in Lu W. et al., 2012. As to conditions: 100–200 μM; ref Lu W. et al., 2012; cited from earlier work.
The subject of series [8] is SW480 cells with a mutant APC gene. More on the design: method as in Kaur et al., 2010. The note with it: 50–200 μM; ref Kaur et al., 2010; cited from earlier work.
Series [9] concerns xenograft model in mice using SW480 cells. Details: method as in Kaur et al., 2010. As to conditions: i.p. 100 or 200 mg/kg; ref Kaur et al., 2010; cited from earlier work.
Details of series [10]: method as in Dixit et al., 2007; Zhu et al., 2013; Amawi et al., 2017b. As to conditions: ref Dixit et al., 2007; Zhu et al., 2013; Amawi et al., 2017b; cited from earlier work.

`COc1cc(C2Oc3cc([C@H]4Oc5cc(O)cc(O)c5C(=O)[C@@H]4O)ccc3OC2CO)ccc1O` (some centres unmarked) [silybin]: the “concentration that inhibits proliferation” value in series [1] (HCT116 and HT29) is 50 to 200 µM. In [1], the “cell cycle arrest and apoptosis” value is “induces both G1 and G2 cell cycle arrest and induces apoptosis”. In [2], the “migratory and invasive capacities” value was “inhibits the migratory and invasive capacities”. Further, in [3], the invasiveness result was “inhibits the invasiveness”. Moreover, the “E-cadherin, vimentin and MMP-2 expression” value in series [4] is “significantly upregulate E-cadherin and decrease the expression of the EMT markers, vimentin and MMP-2”. The “E-cadherin and nuclear β-catenin levels” value in series [5] was “significant upregulation in E-cadherin and downregulation in nuclear β-catenin levels”. The EMT-driven resistance entry in [6] was “significantly decreased”. Further, the Wnt/β-catenin signaling result in series [7] is given as “significantly decreased”. The “nuclear β-catenin, c-Myc expression and apoptosis” value in series [8] was “significantly inhibited the expression of nuclear β-catenin, c-Myc and induced apoptosis”. Also, the “effects in SW480 xenograft” value in series [9] was “produced similar effects”. Besides, in [10], the bioavailability entry was “poor bioavailability”.
